{
  "source": "paper PMC9597362",
  "about": "“The thiophene α-terthienylmethanol isolated from Tagetes minuta inhibits angiogenesis by targeting protein kinase C isozymes α and β2” (Frontiers in Pharmacology, 2022)",
  "key": {"[1]": {"system": "bovine aortic endothelial cells (BAECs)", "assay": "VEGF-induced tube formation assay", "format": "cell-based", "conditions": "for antiangiogenic activity in tube formation: pure compounds, maximum concentration 30 μM; for IC50: Bos taurus, BAEC", "procedure": "The experiment was performed according to Arnaoutova and Kleinman ([Arnaoutova and Kleinman, 2010]). Briefly, BAECs (1.5 × 10^4 cells) were placed on a 96-well plate previously coated with Matrigel®. The plates were incubated for 18 h (37°C, 5% CO2) in the presence and absence of the tested extracts or the pure compounds, at a maximum concentration of 100 μg/ml and 30 μM, respectively, with the addition of VEGF (10 ng/ml) as angiogenic stimuli. […] Controls without or with ethanol (negative control) were simultaneously run. The final concentration of vehicle per well in this and all the experiments described herein was 1% v/v. […] The images were obtained with an inverted microscope and analyzed with the ImageJ software. The tubular structures were quantified. The percentages of inhibition (I%) were calculated as I% = [1−(total tube length treatment/total tube length control)] × 100. Each condition was assessed in triplicate. Each experiment was performed independently three times."}, "[2]": {"system": "BAEC cells", "assay": "Matrigel (Boyden chamber) invasion assay, BAEC", "format": "cell-based, bovine", "conditions": "24 h, VEGF 10 ng/ml chemoattractant, relative to control"}, "[3]": {"system": "PKC-α", "conditions": "cited from earlier work; for Log(IC50/M): given as log of IC50 in M (negative)"}, "[4]": {"system": "PKC-β", "conditions": "cited from earlier work; for Log(IC50/M): given as log of IC50 in M (negative)"}, "[5]": {"system": "MDA-MB-231 cells", "assay": "Matrigel (Boyden chamber) invasion assay, MDA-MB-231", "format": "cell-based, human", "conditions": "30 μM, 16 h, 10% FBS chemoattractant"}, "[6]": {"system": "1:1 mixture of recombinant PKC-α and -β2 isozymes", "conditions": "1:1 mixture α and β, cited from earlier work; for Log(IC50/M): given as log of IC50 in M (negative)"}},
  "note": "Where two headings read alike, the source gives them in different places.",
  "data": [
    {"compound": "Cc1ccc(-c2ccc(C#CCCO)s2)s1", "note": "[Compound 1, 5′-methyl-[5-(4-hydroxy-1-butynyl)]-2,2′-bithiophene]", "values": [
      {"measurement": "antiangiogenic activity in tube formation", "setting": "[1]", "result": "devoid of activity"}
    ]},
    {"compound": "OCCC#Cc1ccc(-c2cccs2)s1", "note": "[Compound 2, 5-(4-hydroxybut-1-ynyl)-2,2′-bithiophene]", "values": [
      {"measurement": "antiangiogenic activity in tube formation", "setting": "[1]", "result": "devoid of activity"}
    ]},
    {"compound": "OCc1ccc(-c2ccc(-c3cccs3)s2)s1", "note": "[Compound 3, 5-hydroxymethyl-2,2':5′,2″-terthiophene]", "values": [
      {"measurement": "invasive cells", "setting": "[2]; 10 μM", "result": "15.7 ± 2.5", "unit": "%"},
      {"measurement": "invasive cells", "setting": "[2]; 30 μM", "result": "1.6 ± 0.4", "unit": "%"},
      {"measurement": "Log(IC50/M)", "setting": "[3]; listed for PKC α, ref Kim et al. (1998)", "result": "−5.3979"},
      {"measurement": "Log(IC50/M)", "setting": "[4]; listed for PKC β, ref Kim et al. (1998)", "result": "−5.3979"},
      {"measurement": "IC50", "setting": "[4]; listed for PKC β, source assay used 1:1 mixture of PKC-α and -β2, ref Kim et al. (1998)", "result": 4, "unit": "µM"},
      {"measurement": "IC50", "setting": "[1]; conversion of the μM value, read-out: IC50 tube formation expressed", "result": "~0.8", "unit": "µg/mL"},
      {"measurement": "IC50", "setting": "[1]; pure compound, VEGF-induced, 18 h, read-out: IC50 tube formation", "result": "2.7 ± 0.4", "unit": "µM"},
      {"measurement": "antiangiogenic effect compared with axitinib 10 μM", "setting": "[1]; at 1.2 μM, p > 0.05", "result": "comparable to that of 10 μM of the potent angiogenesis inhibitor axitinib"},
      {"measurement": "reduction of cell invasion", "setting": "[5]", "result": "32.7 ± 3.1", "unit": "%"},
      {"measurement": "IC50", "setting": "[6]; ref Kim et al. (1998)", "result": 4, "unit": "µM"}
    ]},
    {"compound": "O=Cc1ccc(-c2ccc(-c3ccc(C=O)s3)s2)s1", "note": "[DAT]", "values": [
      {"measurement": "IC50", "setting": "[6]; ref Kim et al. (1998)", "result": 0.3, "unit": "µM"},
      {"measurement": "Log(IC50/M)", "setting": "[6]; ref Kim et al. (1998)", "result": "−6.5229"}
    ]},
    {"compound": "Cn1cc(C2=C(c3cn(C4CCN(Cc5ccccn5)CC4)c4ccccc34)C(=O)NC2=O)c2ccccc21", "note": "[ENZ, Enzastaurin]", "values": [
      {"measurement": "IC50", "setting": "[4]; PKC β, ref Graff et al. (2005)", "result": "[…]"},
      {"measurement": "Log(IC50/M)", "setting": "[4]; PKC β, ref Graff et al. (2005)", "result": "[…]"}
    ]},
    {"compound": "N=C(N)NCCNS(=O)(=O)c1cccc2cnccc12", "note": "[H4, N-(2-guanidinoethyl)isoquinoline-5-sulfonamide]", "values": [
      {"measurement": "IC50", "setting": "[6]; ref Kinsella et al. (1992)", "result": 10, "unit": "µM"},
      {"measurement": "Log(IC50/M)", "setting": "[6]; ref Kinsella et al. (1992)", "result": "−5.0000"}
    ]},
    {"compound": "CC1CNCCN1S(=O)(=O)c1cccc2cnccc12", "note": "(stereo not drawn) [H7, 1-(5-Isoquinolinesulfonyl)-2-methylpiperazine]", "values": [
      {"measurement": "IC50", "setting": "[6]; ref Kinsella et al. (1992)", "result": 40, "unit": "µM"},
      {"measurement": "Log(IC50/M)", "setting": "[6]; ref Kinsella et al. (1992)", "result": "−4.3979"}
    ]},
    {"compound": "CN1CCN(c2nc(C3=C(c4c[nH]c5ccccc45)C(=O)NC3=O)c3ccccc3n2)CC1", "note": "[NVP, 3-(1H-indol-3-yl)-4-[2-(4-methylpiperazin-1-yl)quinazolin-4-yl]-1H-pyrrole-2,5-dione]", "values": [
      {"measurement": "Log(IC50/M)", "setting": "[3]; PKC α, ref Evenou et al. (2009)", "result": "−9.0223"}
    ]},
    {"compound": "CN(C)C[C@@H]1CCn2cc(c3ccccc32)C2=C(C(=O)NC2=O)c2cn(c3ccccc23)CCO1", "note": "[RUB, Ruboxistaurin]", "values": [
      {"measurement": "IC50", "setting": "[3]; PKC α, ref Tang et al. (2008)", "result": "[…]"},
      {"measurement": "Log(IC50/M)", "setting": "[3]; PKC α, ref Tang et al. (2008)", "result": "[…]"},
      {"measurement": "IC50", "setting": "[4]; PKC β, ref Tang et al. (2008)", "result": "[…]"},
      {"measurement": "Log(IC50/M)", "setting": "[4]; PKC β, ref Tang et al. (2008)", "result": "[…]"}
    ]},
    {"compound": "c1csc(-c2ccc(-c3cccs3)s2)c1", "note": "[TT, Terthiophene]", "values": [
      {"measurement": "IC50", "setting": "[6]; ref Kim et al. (1998)", "result": 10, "unit": "µM"},
      {"measurement": "Log(IC50/M)", "setting": "[6]; ref Kim et al. (1998)", "result": "−5.0000"}
    ]}
  ]
}
